Assay results reported in patent publication US6124337A, “Methods and formulations for modulating the human sexual response” (priority 1999, dated 2000).
Structures can show the parent of a compound that is named as a salt.

What was measured:
impotentia erectionis = details: buccal, 100 I.U. three times a day for 14 days; cited from earlier work
male erectile ability = assay: Single blind trial of rapidly dissolving oral formulation on male erectile ability; type: in vivo, human; details: 40 mg dose
Description: In order to test the ability of a rapidly dissolving oral formulation of phentolamine mesylate on erectile ability, a single blind trial was conducted.
All patients had impotence of organic etiology. Patients were selected for inclusion in the trial based medical history and physical examination with a duration of impotence of less than 3-4 years. Each patient was given two tablets: a rapidly dissolving tablet containing 40 mg of phentolamine mesylate (see Table 1), and a placebo tablet lacking phentolamine mesylate.
Patients were asked to take one tablet 20 to 30 minutes before attempting coitus. One or more days after using the first tablet, the patients repeated the process with the second tablet.
Patients were advised not to consume alcohol prior to using the tablets and were told not to expect erection without sexual stimulation. […] Patients were also asked to report side effects.

SMILES: CC[C@H](C)[C@@H]1NC(=O)[C@H](Cc2ccc(O)cc2)NC(=O)[C@@H](N)CSSC[C@@H](C(=O)N2CCC[C@H]2C(=O)N[C@@H](CC(C)C)C(=O)NCC(N)=O)NC(=O)[C@H](CC(N)=O)NC(=O)[C@H](CCC(N)=O)NC1=O [oxytocin]
- Patients with improvement of impotentia erectionis (impotentia erectionis): 12 of the 16

SMILES: Cc1ccc(N(CC2=NCCN2)c2cccc(O)c2)cc1 [phentolamine mesylate]
- Success in improving erectile ability (male erectile ability): significant success
